Source: the kinase profiling compilation of Christmann-Franck et al. (2016)

Columns and labels:
Assay in all cases: radiometric filter-binding kinase assay, Kinase HotSpot
Conditions in all cases: compound 0.5 µM; ATP 10 µM
[1] = target: PRKD1 (human) (UniProt Q15139)
[2] = target: DYRK3 (human) (UniProt O43781)
[3] = target: NTRK1 (human) (UniProt P04629)
[4] = target: PTK2B (human) (UniProt Q14289)
[5] = target: DAPK1 (human) (UniProt P53355)
[6] = target: MARK3 (human) (UniProt P27448)
[7] = target: JAK3 JH1 JH2 (human) (UniProt P52333)
[8] = target: CDK6 CCND3 (human) (UniProt P30281+Q00534)
[9] = target: STK33 (human) (UniProt Q9BYT3)
[10] = target: ROCK1 (human) (UniProt Q13464)
[11] = target: EPHB2 (human) (UniProt P29323)
[12] = target: IRAK1 (human) (UniProt P51617)
[13] = target: ULK2 (human) (UniProt Q8IYT8)
[14] = target: CSNK1G3 (human) (UniProt Q9Y6M4)
[15] = target: STK3 (human) (UniProt Q13188)
[16] = target: GRK6 (human) (UniProt P43250)
[17] = target: DAPK2 (human) (UniProt Q9UIK4)
[18] = target: STK39 (human) (UniProt Q9UEW8)
[19] = target: CDC42BPB (human) (UniProt Q9Y5S2)
[20] = target: PIM2 (human) (UniProt Q9P1W9)
[21] = target: RIPK2 (human) (UniProt O43353)
[22] = target: TNK2 (human) (UniProt Q07912)
[23] = target: ACVR1B (human) (UniProt P36896)
[24] = target: MAP3K8 (human) (UniProt P41279)
[25] = target: MAP4K4 (human) (UniProt O95819)
[26] = target: MAP3K3 (human) (UniProt Q99759)
[27] = target: EPHA4 (human) (UniProt P54764)
[28] = target: CAMK2G (human) (UniProt Q13555)
[29] = target: EPHB4 (human) (UniProt P54760)
[30] = target: CLK4 (human) (UniProt Q9HAZ1)
[31] = target: BRSK1 (human) (UniProt Q8TDC3)
[32] = target: TSSK2 (human) (UniProt Q96PF2)
[33] = target: PRKX (human) (UniProt P51817)
[34] = target: BMX (human) (UniProt P51813)
[35] = target: CDK2 CCNE1 (human) (UniProt P24941+P24864)
[36] = target: CLK1 (human) (UniProt P49759)
[37] = target: TYK2 JH1 catalytic (human) (UniProt P29597)
[38] = target: PRKCI (human) (UniProt P41743)
[39] = target: CDK9 CCNT1 (human) (UniProt P50750+O60563)
[40] = target: MAP3K11 (human) (UniProt Q16584)
[41] = target: CSNK1A1 (human) (UniProt P48729)
[42] = target: CLK3 (human) (UniProt P49761)

Sequence of PIM2 (human) (Q9P1W9 whole entry, looked up): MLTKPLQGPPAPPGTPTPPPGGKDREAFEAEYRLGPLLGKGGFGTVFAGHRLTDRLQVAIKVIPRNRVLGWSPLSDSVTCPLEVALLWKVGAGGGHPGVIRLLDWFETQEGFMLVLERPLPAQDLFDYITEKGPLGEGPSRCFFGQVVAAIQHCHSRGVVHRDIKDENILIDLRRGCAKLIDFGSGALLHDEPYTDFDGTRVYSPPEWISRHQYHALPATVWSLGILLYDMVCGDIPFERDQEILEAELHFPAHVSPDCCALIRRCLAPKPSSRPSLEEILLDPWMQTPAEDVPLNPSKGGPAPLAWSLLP
Sequence of CDK2 CCNE1 (human) (P24864 whole entry, looked up, other chains not shown): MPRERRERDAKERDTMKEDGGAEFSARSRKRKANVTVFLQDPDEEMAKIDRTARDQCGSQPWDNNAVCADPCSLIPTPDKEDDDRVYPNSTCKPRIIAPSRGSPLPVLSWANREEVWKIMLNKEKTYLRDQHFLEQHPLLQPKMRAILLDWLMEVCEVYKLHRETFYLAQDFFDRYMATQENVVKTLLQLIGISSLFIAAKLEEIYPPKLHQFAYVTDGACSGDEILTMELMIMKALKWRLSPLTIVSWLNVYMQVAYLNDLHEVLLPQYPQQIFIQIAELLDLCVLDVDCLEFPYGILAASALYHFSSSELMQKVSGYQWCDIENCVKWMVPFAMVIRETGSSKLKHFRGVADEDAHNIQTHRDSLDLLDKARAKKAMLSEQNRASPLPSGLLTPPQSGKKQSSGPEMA
Sequence of PRKX (human) (P51817 whole entry, looked up): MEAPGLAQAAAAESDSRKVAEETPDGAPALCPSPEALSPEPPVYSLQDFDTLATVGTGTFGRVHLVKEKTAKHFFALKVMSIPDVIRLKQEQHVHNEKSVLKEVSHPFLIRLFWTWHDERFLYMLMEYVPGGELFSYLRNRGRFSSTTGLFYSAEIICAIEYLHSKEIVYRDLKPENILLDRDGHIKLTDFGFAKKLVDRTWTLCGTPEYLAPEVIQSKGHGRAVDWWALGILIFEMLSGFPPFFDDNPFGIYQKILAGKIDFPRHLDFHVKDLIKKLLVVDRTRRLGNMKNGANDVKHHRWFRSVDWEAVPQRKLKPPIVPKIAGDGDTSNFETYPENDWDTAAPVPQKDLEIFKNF
Sequence of MAP4K4 (human) (O95819 whole entry, looked up): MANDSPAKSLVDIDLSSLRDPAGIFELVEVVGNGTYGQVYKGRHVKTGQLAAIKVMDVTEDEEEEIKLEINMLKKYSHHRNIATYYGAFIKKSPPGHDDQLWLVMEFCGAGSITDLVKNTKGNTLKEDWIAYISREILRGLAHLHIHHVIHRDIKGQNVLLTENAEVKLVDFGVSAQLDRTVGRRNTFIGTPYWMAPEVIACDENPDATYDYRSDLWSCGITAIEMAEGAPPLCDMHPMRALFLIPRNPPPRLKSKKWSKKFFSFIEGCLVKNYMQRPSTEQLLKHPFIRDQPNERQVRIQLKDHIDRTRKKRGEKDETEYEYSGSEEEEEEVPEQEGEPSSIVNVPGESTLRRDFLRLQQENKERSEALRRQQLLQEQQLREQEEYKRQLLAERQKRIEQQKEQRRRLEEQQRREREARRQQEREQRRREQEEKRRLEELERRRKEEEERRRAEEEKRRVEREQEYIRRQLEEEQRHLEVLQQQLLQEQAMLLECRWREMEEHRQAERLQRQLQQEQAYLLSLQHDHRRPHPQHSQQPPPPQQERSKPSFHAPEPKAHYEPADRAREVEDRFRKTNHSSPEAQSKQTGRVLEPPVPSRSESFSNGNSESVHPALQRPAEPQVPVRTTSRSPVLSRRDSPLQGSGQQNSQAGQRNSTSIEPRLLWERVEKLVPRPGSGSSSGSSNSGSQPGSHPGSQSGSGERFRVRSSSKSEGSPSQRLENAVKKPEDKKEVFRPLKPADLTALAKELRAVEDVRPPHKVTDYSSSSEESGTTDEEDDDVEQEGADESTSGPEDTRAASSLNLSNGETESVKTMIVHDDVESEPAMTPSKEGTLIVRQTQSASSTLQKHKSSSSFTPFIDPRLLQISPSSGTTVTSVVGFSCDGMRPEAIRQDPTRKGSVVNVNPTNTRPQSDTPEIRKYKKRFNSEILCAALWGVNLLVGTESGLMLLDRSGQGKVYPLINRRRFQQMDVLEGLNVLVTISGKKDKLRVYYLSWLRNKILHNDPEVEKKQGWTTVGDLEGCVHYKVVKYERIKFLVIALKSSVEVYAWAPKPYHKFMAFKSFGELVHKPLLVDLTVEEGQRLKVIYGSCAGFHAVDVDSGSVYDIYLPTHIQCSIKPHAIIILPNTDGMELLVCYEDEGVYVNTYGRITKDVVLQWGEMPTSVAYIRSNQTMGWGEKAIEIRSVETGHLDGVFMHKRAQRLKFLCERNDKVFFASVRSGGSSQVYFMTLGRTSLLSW
Sequence of ULK2 (human) (Q8IYT8 whole entry, looked up): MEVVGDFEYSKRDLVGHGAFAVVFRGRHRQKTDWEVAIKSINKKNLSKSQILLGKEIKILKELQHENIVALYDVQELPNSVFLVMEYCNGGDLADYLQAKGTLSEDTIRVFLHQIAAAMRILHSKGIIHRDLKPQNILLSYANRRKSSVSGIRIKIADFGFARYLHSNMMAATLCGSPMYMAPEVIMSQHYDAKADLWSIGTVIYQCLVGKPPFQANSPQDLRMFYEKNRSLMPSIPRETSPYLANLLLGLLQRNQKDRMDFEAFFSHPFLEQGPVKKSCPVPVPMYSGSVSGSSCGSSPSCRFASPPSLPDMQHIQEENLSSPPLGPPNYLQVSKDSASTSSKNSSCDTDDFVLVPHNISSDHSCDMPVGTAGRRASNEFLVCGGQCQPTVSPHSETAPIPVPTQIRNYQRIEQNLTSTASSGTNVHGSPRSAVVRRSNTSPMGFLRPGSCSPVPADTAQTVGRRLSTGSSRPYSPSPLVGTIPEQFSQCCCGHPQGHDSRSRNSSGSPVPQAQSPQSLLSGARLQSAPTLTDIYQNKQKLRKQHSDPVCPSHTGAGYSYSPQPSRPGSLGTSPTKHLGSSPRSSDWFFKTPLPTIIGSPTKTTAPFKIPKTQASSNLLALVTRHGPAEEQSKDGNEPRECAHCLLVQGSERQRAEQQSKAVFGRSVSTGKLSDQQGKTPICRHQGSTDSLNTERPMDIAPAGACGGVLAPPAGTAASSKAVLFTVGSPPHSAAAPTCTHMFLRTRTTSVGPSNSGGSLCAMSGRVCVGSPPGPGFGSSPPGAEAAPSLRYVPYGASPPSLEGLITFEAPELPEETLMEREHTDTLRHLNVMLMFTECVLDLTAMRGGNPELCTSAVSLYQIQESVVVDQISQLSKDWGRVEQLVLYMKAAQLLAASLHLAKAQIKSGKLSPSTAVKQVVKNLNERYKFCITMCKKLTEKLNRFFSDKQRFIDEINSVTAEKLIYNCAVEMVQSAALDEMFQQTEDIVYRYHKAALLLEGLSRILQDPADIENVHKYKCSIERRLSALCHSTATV
Sequence of TSSK2 (human) (Q96PF2 whole entry, looked up): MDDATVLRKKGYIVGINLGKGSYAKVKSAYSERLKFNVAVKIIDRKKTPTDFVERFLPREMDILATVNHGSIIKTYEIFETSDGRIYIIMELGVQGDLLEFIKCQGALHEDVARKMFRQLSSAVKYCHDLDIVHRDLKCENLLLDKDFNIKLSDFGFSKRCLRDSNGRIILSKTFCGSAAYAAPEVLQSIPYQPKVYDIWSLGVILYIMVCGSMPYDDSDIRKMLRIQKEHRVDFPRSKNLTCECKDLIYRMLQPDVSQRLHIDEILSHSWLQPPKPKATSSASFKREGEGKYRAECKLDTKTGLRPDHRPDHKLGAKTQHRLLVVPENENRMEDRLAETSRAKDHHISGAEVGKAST
Sequence of EPHB2 (human) (P29323 whole entry, looked up): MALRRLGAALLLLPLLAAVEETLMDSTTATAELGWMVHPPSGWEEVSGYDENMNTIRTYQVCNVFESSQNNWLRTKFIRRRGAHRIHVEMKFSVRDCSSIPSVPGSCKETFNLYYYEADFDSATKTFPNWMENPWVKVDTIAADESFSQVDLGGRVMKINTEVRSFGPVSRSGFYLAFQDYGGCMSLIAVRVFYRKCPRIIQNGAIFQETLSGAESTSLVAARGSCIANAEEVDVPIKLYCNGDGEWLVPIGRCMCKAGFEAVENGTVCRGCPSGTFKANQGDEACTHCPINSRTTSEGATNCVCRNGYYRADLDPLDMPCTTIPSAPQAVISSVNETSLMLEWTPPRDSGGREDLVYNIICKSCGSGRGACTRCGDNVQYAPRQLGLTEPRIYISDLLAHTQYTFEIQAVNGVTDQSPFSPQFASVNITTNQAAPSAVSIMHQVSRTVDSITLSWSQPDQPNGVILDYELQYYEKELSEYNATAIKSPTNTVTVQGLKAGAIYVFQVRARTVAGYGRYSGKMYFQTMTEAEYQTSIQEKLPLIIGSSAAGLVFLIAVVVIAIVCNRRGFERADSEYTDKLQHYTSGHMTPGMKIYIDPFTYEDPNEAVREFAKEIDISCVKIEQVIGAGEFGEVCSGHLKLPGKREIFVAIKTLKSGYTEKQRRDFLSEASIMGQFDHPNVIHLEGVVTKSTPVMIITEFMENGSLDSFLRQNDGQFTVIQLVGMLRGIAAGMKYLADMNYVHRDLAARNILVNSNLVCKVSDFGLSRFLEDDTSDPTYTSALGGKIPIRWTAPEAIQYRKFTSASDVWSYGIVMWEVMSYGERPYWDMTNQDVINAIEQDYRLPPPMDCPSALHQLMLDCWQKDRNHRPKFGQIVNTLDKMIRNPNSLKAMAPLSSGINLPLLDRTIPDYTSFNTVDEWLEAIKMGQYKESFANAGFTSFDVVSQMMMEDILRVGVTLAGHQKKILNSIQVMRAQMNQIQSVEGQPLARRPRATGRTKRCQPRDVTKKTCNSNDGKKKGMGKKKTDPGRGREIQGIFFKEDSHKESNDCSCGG

Nc1n[nH]c2nnc(-c3c(-c4ccccc4)nn4ccccc34)cc12
residual activity [1]: 68.4%
residual activity [2]: 99.8%
residual activity [3]: 101%
residual activity [4]: 95.4%
residual activity [5]: 95.9%
residual activity [6]: 99.3%
residual activity [7]: 105%
residual activity [8]: 90.4%
residual activity [9]: 100%
residual activity [10]: 100%
residual activity [11]: 93.1%
residual activity [12]: 105%
residual activity [13]: 100%
residual activity [14]: 104%
residual activity [15]: 102%
residual activity [16]: 99.3%
residual activity [17]: 103%
residual activity [18]: 89.1%
residual activity [19]: 93.4%
residual activity [20]: 91.7%
residual activity [21]: 87%
residual activity [22]: 82.7%
residual activity [23]: 107%
residual activity [24]: 95%
residual activity [25]: 62%
residual activity [26]: 110%
residual activity [27]: 85.9%
residual activity [28]: 96.7%
residual activity [29]: 98.5%
residual activity [30]: 101%
residual activity [31]: 98.6%
residual activity [32]: 104%
residual activity [33]: 101%
residual activity [34]: 84.4%
residual activity [35]: 101%
residual activity [36]: 108%
residual activity [37]: 104%
residual activity [38]: 98.3%
residual activity [39]: 97.3%
residual activity [40]: 94.3%
residual activity [41]: 100%
residual activity [42]: 94.9%

CC(C)[C@H](CO)Nc1nc(Nc2cccc(Cl)c2)c2ncn(C(C)C)c2n1
residual activity [1]: 96.9%
residual activity [2]: 105%
residual activity [3]: 67.3%
residual activity [4]: 66.5%
residual activity [5]: 99.7%
residual activity [6]: 96.6%
residual activity [7]: 92.5%
residual activity [8]: 71%
residual activity [9]: 74.4%
residual activity [10]: 100%
residual activity [11]: 99.3%
residual activity [12]: 109%
residual activity [13]: 97.7%
residual activity [14]: 17.3%
residual activity [15]: 90.8%
residual activity [16]: 98.3%
residual activity [17]: 111%
residual activity [18]: 99.2%
residual activity [19]: 108%
residual activity [20]: 105%
residual activity [21]: 88.1%
residual activity [22]: 55.6%
residual activity [23]: 99.8%
residual activity [24]: 101%
residual activity [25]: 84.9%
residual activity [26]: 102%
residual activity [27]: 102%
residual activity [28]: 96.9%
residual activity [29]: 71.7%
residual activity [30]: 50.9%
residual activity [31]: 100%
residual activity [32]: 97.5%
residual activity [33]: 97.4%
residual activity [34]: 84.3%
residual activity [35]: 9.88%
residual activity [36]: 67.5%
residual activity [37]: 95.2%
residual activity [38]: 96.6%
residual activity [39]: 65%
residual activity [40]: 40.2%
residual activity [41]: 91.8%
residual activity [42]: 89.7%
